Data taken from patent US9770469B2, “Methods of reprogramming renal cells” (Tel HaShomer Medical Research Infrastructure and Services …, priority 2009, dated 2017).

Assays:
human adult kidney cells [1] = assay: Western blot for Six2 and Wt1 after VPA; type: cell-based; conditions: 24 h after VPA exposure
Method: (§1) Cell Treatment: Cells were treated for 24 hours with growth medium supplemented with 1, 2, or 4 mM VPA (Sigma) or with H2O for control sample. Otherwise, cells were treated for 24 hours with growth medium supplemented with the combination of 75 μM TSA (Sigma) and 250 μM 5-AZA (Sigma) or with 100% Ethanol and Acetic Acid (Acetic Acid: H2O 1:1) for control sample. […] 24 hours prior to harvesting VPA at a concentration of 4 mM was added to the cell culture.
(§2) Western Blot: AK, FK (treated and untreated) and Melanoma cells were harvested with Tripsin/EDTA. Cell extracts were prepared with lysis buffer (50 mM Tris-HCl, 150 mM NaCl, 0.1 mM EDTA, 0.5 mM DTT, 1.5 mM MgCl, 0.5% Triton-X) and their concentrations were detected by BCA protein assay kit (Thermo scientific). 100 μg of total proteins were heated at 95° C. for 5 min with laemmli sample buffer (Bio-rad) and then were loaded on SDS-10% polyacrylamide gel. After electrophoresis, proteins were transferred to nitrocellulose membrane that was blocked with 5% nonfat dry milk overnight at 4° C. The membrane was reacted with the required antibodies, namely Six2 (Affinity Bioreagents), WT1 (Santa Cruz), goat anti-rabbit IgG (Jackson). The membrane was reacted with ECL substrate (Thermo scientific) and was exposed to medical x-ray film (Fuji).

human fetal kidney cells = assay: Western blot for Six2 and Wt1 after VPA; type: cell-based; conditions: 24 h after VPA exposure
Method: as §1, §2

HAK cells = assay: Culture passage with transient or constant VPA (qRT-PCR, morphology); type: cell-based, human; conditions: for cell morphology: culture passage
Method: Quantitative Reverse Transcription-PCR: Total RNA from kidney tissue cultured cells was isolated using the TRIZOL reagent (Invitrogen) according to the manufacturer's protocols. cDNA synthesis was carried out using Verso kit (Thermo scientific) with Random primers. Quantitative RT PCR was performed using an ABI7900HT sequence detection system (Perkin-Elmer/Applied Biosystems) in the presence of SYBR green (SYBR green PCR kit; Qiagen). Each analysis reaction was performed in duplicates or triplicates. GapDH was used as an endogenous control throughout all experimental analyses. Analysis was performed using the −ΔΔCt method, which determines fold changes in gene expression relative to a comparator sample. Maintaining re-induction of Six2/Osr1 in cultured human kidney cells is potentially important if such cells were to be propagated in vitro for the purpose of cell therapy. The present inventors therefore determined whether Six2 and Osr1 are maintained upon tissue culture passage of adult cells. Two treatment protocols were employed; the first, 24-hour exposure to 4 mM VPA and the second constant exposure to VPA.

adult kidney cells = assay: Chromatin immunoprecipitation (ChIP) of Six2 and Wt1 promoters; type: cell-based, human; conditions: VPA 4 mM
Method: Chromatin Immunoprecipitation Assay (ChIP): 10×10^6 cells adult kidney cells were grown. Untreated cells (control) or cells treated with VPA (4 mM) were cross-linked with 1% formaldehayde for 10 min at RT in culture medium. The cells were washed and harvested in cold phosphate-buffered saline (PBS) containing protease inhibitors (Complete mini, Roche Applied Science) and Pepstatin (Sigma). The cells were then washed with Buffer B (20 mM Hepes pH 7.6, 0.25% Triton-x, 10 mM EDTA, 0.5 mM EGTA) and Buffer C (50 mM Hepes pH 7.6, 150 mM NaCl, 1 mM EDTA, 0.5 mM EGTA) were resuspended in 300 μl of SDS lysis buffer [1% SDS, 10 mM EDTA and 50 mM Tris-HCl (pH 8.1)], and incubated on ice for 10 minutes. Lysates were sonicated with 8×10 second bursts and debris were removed by centrifugation for 10 minutes at 1000 g, at 4° C. Supernatants were diluted 10-fold in ChIP dilution buffer [0.01% SDS, 1.1% Triton X-100, 1.2 mM EDTA, 16.7 mM Tris-HCl (pH 8.1) and 167 mM NaCl] and pre-cleared by incubating with 40 μl of protein A+salmon sperm beads (Upstate Biotechnology) for 30 minutes at 4° C. Beads were pelleted for 1 minute at 1000 g at 4° C. A total of 10 μl of the supernatant was saved as input, and the rest was divided into equal aliquots and incubated by rocking with either control Ab (IgG) or with of specific antibodies; Trimethyl-Histon 3K27 antibody (Upstate Biotechnology), anti acetylatedhistone H4 (Upstate Biotechnology) over night at 4° C. A total of 60 μl of protein A+salmon sperm beads was added, and the samples were rocked for 2 hours at 4° C. The complexes on the beads were washed for 5 minutes at 4° C. with the following buffers: low salt [0.1% SDS, 1% Triton X-100, 2 mM EDTA, 20 mM Tris-HCl (pH 8.1) and 150 mM NaCl], high salt [0.1% SDS, 1% Triton X-100, 2 mM EDTA, 20 mM Tris-HCl (pH 8.1), 500 mM NaCl], LiCl wash [0.25 M LiCl, 1% Nonidet P-40, 1% deoxycholate, 1 mM EDTA and 10 mM Tris-HCl (pH 8.1)], and twice with TE [10 mM Tris-HCl and 1 mM EDTA (pH 8.0)]. Immune complexes were eluted twice with 200 μl of elution buffer [1% SDS and 0.1 M NaHCO3]for 15 minutes at room temperature. The samples were de-crosslinked by adding 16 μl of 5 M NaCl, 8 μl of 0.5 M EDTA (pH 6.5) and 16 μl of 1M Tris-HCl (pH 8.1) and incubated O.N at 65° C. Proteinase K (10 mg/ml) and the samples were incubated for additional 2 hours at 55° C. Immunoprecipitated DNA was recovered by phenol/chloroform extraction and ethanol precipitation and was analyzed by quantitative RT PCR.

human adult kidney cells [2] = assay: qRT-PCR gene expression after TSA/AzaC or VPA treatment; type: cell-based; conditions: HAK cells, 24 h VPA, particularly in VPA-2 mM
[3] = P0 cells, transient 24-hour exposure to 4 mM VPA
[4] = later passages, transient 24-hour exposure to 4 mM VPA

Question: With `CCCC(CCC)C(=O)O` [VPA, valproic acid] as the molecule, how does the Six2 protein levels (human adult kidney cells [1]; 4 mM) read?
Answer: Its Six2 protein levels is “increment”.

Question: And the Wt1 protein levels (human adult kidney cells [1]; 2 and 4 mM)?
Answer: Its Wt1 protein levels is “no changes”.

Question: And the Six2 protein levels (human fetal kidney cells; 4 mM)?
Answer: The Six2 protein levels was “increment”.

Question: And the Wt1 protein levels (human fetal kidney cells; 2 and 4 mM)?
Answer: The Wt1 protein levels was “no changes”.

Question: What about the Osr1 gene levels (HAK cells; [3]) of the same molecule?
Answer: The Osr1 gene levels was “re-induced”.

Question: What about the Six2 gene levels (HAK cells; [3]) of the same molecule?
Answer: Its Six2 gene levels is “re-induced”.

Question: And the “Osr1 gene levels upon culture passage” value (HAK cells; constant VPA exposure, P1-P3)?
Answer: Its value is “significant Six2 and Osr1 re-induction”.

Question: And the “Six2 gene levels upon culture passage” value (HAK cells; constant VPA exposure, P1-P3)?
Answer: The value was “significant Six2 and Osr1 re-induction”.

Question: What about the Six2 gene levels (HAK cells; constant VPA exposure, P3 cells) of the same molecule?
Answer: Its Six2 gene levels is “even further up-regulated”.

Question: What about the cell morphology (HAK cells; constant VPA exposure) of the same molecule?
Answer: The cell morphology was “epithelial-like cell morphology”.

Question: And the Osr1 gene levels (HAK cells; [4])?
Answer: Its Osr1 gene levels is “remained similar to controls”.

Question: What about the Six2 gene levels (HAK cells; [4]) of the same molecule?
Answer: Its Six2 gene levels is “remained similar to controls”.

Question: And the cell morphology (HAK cells; transient 24-hour VPA exposure)?
Answer: Its cell morphology is “fibroblastic morphology”.

Question: What about the “H3K4me at Six2 promoter regions” value (adult kidney cells) of the same molecule?
Answer: Its value is “significant increases”.

Question: What about the “H3K4me elevation in the Wt1 promoter region” value (adult kidney cells) of the same molecule?
Answer: Its value is “not”.

Question: And the “H3K27me in the Wt1 promoter region” value (adult kidney cells)?
Answer: The value was “modest elevation”.

Question: And the “H3K27me levels at Six2 promoter regions” value (adult kidney cells)?
Answer: The value was “no change”.

Question: What about the “acetylated histones H4 at Six2 promoter regions (-92, -412, -541, -731, -955, -1157)” value (adult kidney cells) of the same molecule?
Answer: Its value is “significantly increased”.

Question: And the “Oct4 mRNA expression change” value (human adult kidney cells [2])?
Answer: The value was “significantly up-regulated”.
